In patent US6093723A, “4-substituted beta-carbolines and analogs thereof” (Boehringer Ingelheim Pharmaceuticals, Inc., priority 1997, dated 2000):

What was measured:
[1] = tested on: Ca^+2 influx in Jurkat cells (clone E6-1); assay: Calcium influx assay (thapsigargin-stimulated, Fluo-3); format: cell-based; settings: Homo sapiens; Jurkat cells clone E6-1, thapsigargin 100 nM, 10 min preincubation
Protocol: Jurkat cells (clone E6-1) are pelleted by centrifugation, washed twice, and resuspended in RPMI 1640 containing, […], 1 % fetal calf serum, 3 μM Fluo-3-AM, 13.5 μl/ml Pluronic F 127 (Molecular Probes) and incubated for 1 hour at 37° C. The loaded cells are washed twice in Hanks Balanced Salt Solution containing 10 mM HEPES. The cells are resuspended in HBSS containing 10 mM HEPES, and dispensed into 96-well Dynatech black microtiter plates at 2×10^5 cells/well. The cells are preincubated with compounds for 10 minutes at room temperature. Baseline fluorescence of unstimulated cells is measured using an SLT fluorescent microtiter plate reader with an excitation wavelength of 495 nm and emission wavelength of 538 nm. Thapsigargin is then added to a final concentration of 100 nM. Following a 5 minute incubation, fluorescence of thapsigargin treated cells is measured. Delta fluorescence values are determined by subtracting baseline fluorescence values from thapsigargin induced fluorescence values.

[2] = tested on: IL-2 production in CD3+/CD4+ cells; assay: IL-2 production assay, Protocol A (ionomycin and PMA as stimuli); format: cell-based; settings: human CD3+/CD4+ cells, ionomycin 1 μg/ml and PMA 10 ng/ml, 16 hr
Protocol: Protocol A (ionomycin and […] as stimuli)
Human peripheral blood is obtained from healthy donors by venipuncture and the mononuclear cell fraction is prepared by centrifugation on Ficoll Hypaque (Phamacia) density gradients. Contaminating red blood cells are lysed and the CD3+/CD4+ cells are purified using immunoaffinity columns (R&D Systems or CellPro). The cells are resuspended and dispensed in 96 well microtiter plates. Test compounds are added to the cells approximately 15 minutes prior to stimulation with ionomycin (1 μg/ml) and PMA (10 ng/ml). The final volume of the assay is 100 μL. Following a 16 hr incubation at 37° C., the cells are pelleted by centrifugation, and the supernatants are collected and stored at -70° C. until assayed for IL-2 using a commercial ELISA kit (Genzyme).

[3] = tested on: IL-2 promoter; assay: IL-2 promoter assay (luciferase reporter in Jurkat cells); format: cell-based; settings: Homo sapiens; Jurkat luciferase reporter cells, ionomycin 1 μg/ml and PMA 10 ng/ml, 5 hr; read-out: IL-2 PROMOTER IC50
Text: All the known regulatory features of IL-2 gene are contained within a ~300 bp sequence immediately upstream of the open reading frame. […] The resulting construct, pIL2P-luc, and a vector containing a neomycin resistance gene, pcDNA/Neo (Invitrogen), are linearized and stably transfected into Jurkat cells (a human T cell line) by electroporation.
For screening compounds, the cells are pelleted by centrifugation, washed once with PBS, resuspended in RPMI (phenol red-free) containing 5% FBS, and dispensed into 96-well, white microtiter plates (Packard) at 50,000 cells/well. The cells are pre-incubated with compounds (1 μg/ml) for 15 min prior to addition of ionomycin (1 μg/ml) and PMA (10 ng/ml) in a final volume of 100 μl. Following a 5 hr incubation at 37° C. in a humidified incubator, 100 μl of Luc-Lite lysis buffer/luciferase assay buffer (Promega) is added and luminescence measured using a Packard TopCount scintillation counter/luminometer.

[4] = tested on: IL-2 production in T lymphocytes (CD3+/CD4+ cells); assay: IL-2 production assay, Protocol B (antiCD3/antiCD28 as stimuli); format: cell-based; settings: T-lymphocyte; human T lymphocytes, anti-CD3/anti-CD28 and goat anti-mouse coated beads, 16 hour
Protocol: Protocol B (antiCD3/antiCD28 as stimuli)
Human peripheral blood is obtained from healthy donors by venipuncture and the mononuclear cell fraction is prepared by centrifugation on Ficoll Hypaque (Phamacia) density gradients. Contaminating red blood cells are lysed and the CD3+/CD4+ cells are purified using immunoaffinity columns (R&D Systems or CellPro). The T lymphocytes are plated at 1-1.5×10^5 cells/well in a 96 well microtiter plate, and incubated with serial dilutions of compounds for 20 minutes at 37° C. The T cells are activated by the addition of 0.6 ng/ml anti-CD3 (Immunotech), 500 ng/ml anti-CD28 (Biodesign) and 2×10^5 goat anti-mouse coated beads (Dynal). The final volume of the assay is 200 μl. Following a 16 hour incubation at 37° C., the cells are pelleted, and the supernatants are removed and collected and stored at -70° C. until assayed for interleukin-2 using a commercial ELISA kit (R&D Systems).

[5] = tested on: allogeneic cell transplant response (T-cell-mediated immune response, popliteal lymph node); assay: Allogeneic cell transplant response in mice (popliteal lymph node weight); format: in vivo, mice (DBA donors, C57B1/6 recipients); settings: dosed one hour prior to cell injection and daily thereafter, ~four days
Text: Allogeneic Cell Transplant Response in Mice
The ability of cells to recognize other cells from self or from another genetically different individual (non-self) is an important property in maintaining the integrity of tissue and organ structure. The allogeneic cell transplant response is therefore an important model for studies of transplant rejection. This T-cell-mediated immune response can be induced in adult mice by the injection of lymphocytes from an histoincompatible mouse strain. This response is characterized by T cell proliferation which is limited to the popliteal lymph node that receives drainage from the footpad area. No in vitro system exists that can exactly duplicate completely this in vivo response. The assay is commonly used to evaluate new and novel potential immunosuppressive molecules.
Experiments are conducted using male or female mice (20-26 grams). Any histoincompatible mouse strains suffice for donor and recipient populations. Typically DBA mice are used as donors and C57B1/6 mice are used as recipients. A minimum of 1 week stabilization and conditioning period is usually required before use of the mice. Each study utilizes approximately 36 recipient mice divided into groups of 6.
Donor mice are sacrificed by CO2 asphyxiation and spleens are removed and a cell suspension is prepared. The cell suspension (1.0×10^7/metatarsal in 0.05 ml) is injected I.D. into the dorsal metatarsal skin of recipient mice. Four days later, the animals are sacrificed by CO2 asphyxiation and the popliteal nodes are removed and weighed. Groups of mice receiving putative immunosuppressive agents are dosed subcutaneously,intraperitoneally or orally one hour prior to cell injection and daily thereafter. The tests last approximately four days. The assay involves no footpad swelling and only a moderate increase in the size of the popliteal lymph node. Student's t test is used to determine significant differences between popliteal lymph nodes of groups of untreated mice and those mice treated with putative immunosuppressive agents.

| IC50 [1] | IC50 [2] | IC50 [3] | IC50 [4] | SMILES | ALLOGENEIC CELL TRANSPLANT % ([5]; 0.1 mg/kg) | ALLOGENEIC CELL TRANSPLANT % ([5]; 1 mg/kg) |
| --- | --- | --- | --- | --- | --- | --- |
| 500 nM | 0.3 µM | 230 nM | 3.4 µM | FC(F)(F)c1ccc(-c2cncc3[nH]c4ccccc4c23)cc1 [Compound 4, 4-(p-Trifluoromethylphenyl)-β-carboline] | 38% | – |
| 300 nM | 1 µM | 1090 nM | 4.2 µM | COc1ccc(-c2cncc3[nH]c4ccccc4c23)cc1 [Compound 5, 4-(p-Methoxyphenyl)-β-carboline] | – | 60% |
| 700 nM | 5 µM | 3000 nM | 9.8 µM | COc1cccc(-c2cncc3[nH]c4ccccc4c23)c1 [Compound 7] | – | 49% |
